# From patent US11807625B2, “Capsid inhibitors for the prevention of HIV” (Gilead Sciences, Inc., priority 2019, dated 2023)
# “And” between values parts separate entries of the source, which are not always exact repeats. Equal entries are not always repeated.
# Experiment: PK of compound of Formula (Ia) after single subcutaneous dose of solution formulations in beagle dogs
# Format: in vivo
# Details: individual dogs
# Method: Formulations containing the compound of Formula (Ia), or a pharmaceutically acceptable salt thereof, were prepared as solutions and optionally administered subcutaneously or intramuscularly to rats, rabbits, and/or dogs.
# A solution of about 400 mg/mL of the compound of Formula (Ia) having 17.00 w/w % water, 36.40 w/w % PEG 300, 35.20 w/w % of a sodium salt of a compound of Formula (Ia), 5.00 w/w % ethanol, and 6.40 w/w % poloxamer 188 was prepared. The solution was administered subcutaneously to male beagle dogs at a dose level of about 12 mg/kg and male Wistar Han rats at a dose level of about 50 mg/kg. The pharmacokinetic profiles were determined, and the results for dogs are summarized in Table and Table, while the results for rats are summarized in Table and Table below.
# A solution of about 500 mg/mL of the compound of Formula (Ia) having 14.06 w/w % water, 30.12 w/w % PEG 300, […] of a sodium salt of a compound of Formula (Ia), 5.00 w/w % ethanol, and 6.40 w/w % poloxamer 188 was prepared. The solution was administered subcutaneously to male beagle dogs at a dose level of about 12 mg/kg and male Wistar Han rats at a dose level of about 50 mg/kg. The pharmacokinetic profiles were determined, and the results for dogs are summarized in Table and Table, while the results for rats are summarized in Table and Table below.
# A solution of about 300 mg/mL of the compound of Formula (Ia) having 23.33 w/w % water, 48.99 w/w % PEG 300, 26.47 w/w % of a sodium salt of a compound of Formula (Ia), and 1.21 w/w % poloxamer 188 was prepared. The solution was administered subcutaneously to male beagle dogs at a dose level of about 6 mg/kg and male Wistar Han rats at a dose level of about 50 mg/kg. The pharmacokinetic profiles were determined, and the results for dogs are summarized in Table and Table, while the results for rats are summarized in Table and Table below.
# A solution of about 400 mg/mL of the compound of Formula (Ia) having 18.80 w/w % water, 40.25 w/w % PEG 300, 34.38 w/w % of a sodium salt of a compound of Formula (Ia), 5.00 w/w % ethanol, and 1.57 w/w % poloxamer 188 was prepared. The solution was administered subcutaneously to male beagle dogs at a dose level of about 12 mg/kg and male Wistar Han rats at a dose level of about 50 mg/kg. The pharmacokinetic profiles were determined, and the results for dogs are summarized in Table and Table, while the results for rats are summarized in Table and Table below.
# A solution of about 500 mg/mL of the compound of Formula (Ia) having 16.29 w/w % water, 34.88 w/w % PEG 300, 41.92 w/w % of a sodium salt of a compound of Formula (Ia), 5.00 w/w % ethanol, and 1.91 w/w % poloxamer 188 was prepared. The solution was administered subcutaneously to male beagle dogs at a dose level of about 12 mg/kg and male Wistar Han rats at a dose level of about 50 mg/kg. The pharmacokinetic profiles were determined, and the results for dogs are summarized in Table and Table, while the results for rats are summarized in Table and Table below.
# A solution of about 400 mg/mL of the compound of Formula (Ia) having 20.90 w/w % water, 44.72 w/w % PEG 300, and 34.38 w/w % of a sodium salt of a compound of Formula (Ia) was prepared. The solution was administered subcutaneously to male beagle dogs at a dose level of about 12 mg/kg and male Wistar Han rats at a dose level of about 50 mg/kg. The pharmacokinetic profiles were determined, and the results for dogs are summarized in Table and Table, while the results for rats are summarized in Table and Table below.
# A solution of about 400 mg/mL of the compound of Formula (Ia) having 19.90 w/w % water, 42.59 w/w % PEG 300, 34.38 w/w % of a sodium salt of a compound of Formula (Ia), and 3.13 w/w % poloxamer 188 was prepared. The solution was administered subcutaneously to male beagle dogs at a dose level of about 12 mg/kg and male Wistar Han rats at a dose level of about 50 mg/kg. […]
compound,measurement,setting,value
CC(C)(C#Cc1ccc(-c2ccc(Cl)c3c(NS(C)(=O)=O)nn(CC(F)(F)F)c23)c([C@H](Cc2cc(F)cc(F)c2)NC(=O)Cn2nc(C(F)(F)F)c3c2C(F)(F)[C@@H]2C[C@H]32)n1)S(C)(=O)=O [compound of Formula (Ia)],Plasma concentration,"0 h, SC 6 mg/kg, solution V, 300 mg/mL",BLQ
same,Plasma concentration,"0 h, SC 12 mg/kg, solution T, 400 mg/mL",BLQ
same,Plasma concentration,"0 h, SC 12 mg/kg, solution U, 500 mg/mL",BLQ
same,Plasma concentration,"1.00 h, SC 6 mg/kg, solution V, 300 mg/mL",BLQ
same,Plasma concentration,"1.00 h, SC 12 mg/kg, solution T, 400 mg/mL, 12 mg/kg",10.5 nM and 4.75 nM and 2.96 nM
same,Plasma concentration,"1.00 h, SC 12 mg/kg, solution U, 500 mg/mL, 12 mg/kg",4.85 nM and 2.05 nM and 9.86 nM
same,Plasma concentration,"3.00 h, SC 6 mg/kg, solution V, 300 mg/mL, 6 mg/kg",BLQ and 3.25 nM
same,Plasma concentration,"3.00 h, SC 12 mg/kg, solution T, 400 mg/mL, 12 mg/kg",26.1 nM and 18.6 nM and 9.64 nM
same,Plasma concentration,"3.00 h, SC 12 mg/kg, solution U, 500 mg/mL, 12 mg/kg",22.9 nM and 7.00 nM and 36.1 nM
same,Plasma concentration,"8.00 h, SC 6 mg/kg, solution V, 300 mg/mL, 6 mg/kg",11.6 nM and 11.4 nM
same,Plasma concentration,"8.00 h, SC 12 mg/kg, solution T, 400 mg/mL, 12 mg/kg",84.5 nM and 50.3 nM
same,Plasma concentration,"8.00 h, SC 12 mg/kg, solution U, 500 mg/mL, 12 mg/kg",68.7 nM and 26.4 nM and 88.4 nM
same,Plasma concentration,"24.0 h, SC 6 mg/kg, solution V, 300 mg/mL, 6 mg/kg",25.7 nM and 22.6 nM
same,Plasma concentration,"24.0 h, SC 12 mg/kg, solution T, 400 mg/mL, 12 mg/kg",254 nM and 187 nM
same,Plasma concentration,"24.0 h, SC 12 mg/kg, solution U, 500 mg/mL, 12 mg/kg",101 nM and 92.7 nM and 207 nM
same,Plasma concentration,"48.0 h, SC 6 mg/kg, solution V, 300 mg/mL, 6 mg/kg",27.9 nM and 29.4 nM
same,Plasma concentration,"48.0 h, SC 12 mg/kg, solution T, 400 mg/mL, 12 mg/kg",166 nM and 380 nM and 179 nM
same,Plasma concentration,"48.0 h, SC 12 mg/kg, solution U, 500 mg/mL, 12 mg/kg",94.1 nM and 94.8 nM
same,Plasma concentration,"72.0 h, SC 6 mg/kg, solution V, 300 mg/mL, 6 mg/kg",29.6 nM and 31.5 nM
same,Plasma concentration,"72.0 h, SC 12 mg/kg, solution T, 400 mg/mL, 12 mg/kg",105 nM and 452 nM and 112 nM
same,Plasma concentration,"72.0 h, SC 12 mg/kg, solution U, 500 mg/mL, 12 mg/kg",62.3 nM and 64.0 nM
same,Plasma concentration,"96.0 h, SC 6 mg/kg, solution V, 300 mg/mL, 6 mg/kg",28.8 nM and 29.6 nM
same,Plasma concentration,"96.0 h, SC 12 mg/kg, solution T, 400 mg/mL, 12 mg/kg",89.8 nM and 523 nM and 83.8 nM
same,Plasma concentration,"96.0 h, SC 12 mg/kg, solution U, 500 mg/mL, 12 mg/kg",45.7 nM and 62.6 nM
same,Plasma concentration,"168 h, SC 6 mg/kg, solution V, 300 mg/mL, 6 mg/kg",34.5 nM and 41.4 nM
same,Plasma concentration,"168 h, SC 12 mg/kg, solution T, 400 mg/mL, 12 mg/kg",105 nM and 408 nM and 151 nM
same,Plasma concentration,"168 h, SC 12 mg/kg, solution U, 500 mg/mL, 12 mg/kg",55.9 nM and 49.6 nM and 187 nM
same,Plasma concentration,"336 h, SC 12 mg/kg, solution T, 400 mg/mL, 12 mg/kg",353 nM and 250 nM
same,Plasma concentration,"336 h, SC 12 mg/kg, solution U, 500 mg/mL, 12 mg/kg",155 nM and 187 nM
same,Plasma concentration,"504 h, SC 12 mg/kg, solution T, 400 mg/mL, 12 mg/kg",229 nM and 199 nM
same,Plasma concentration,"504 h, SC 12 mg/kg, solution U, 500 mg/mL, 12 mg/kg",166 nM and 129 nM
same,Plasma concentration,"672 h, SC 12 mg/kg, solution T, 400 mg/mL, 12 mg/kg",106 nM and 90.6 nM
same,Plasma concentration,"672 h, SC 12 mg/kg, solution U, 500 mg/mL, 12 mg/kg",106 nM and 101 nM and 38.7 nM
same,Plasma concentration,"840 h, SC 12 mg/kg, solution T, 400 mg/mL, 12 mg/kg",139 nM and 69.8 nM and 63.7 nM
same,Plasma concentration,"840 h, SC 12 mg/kg, solution U, 500 mg/mL, 12 mg/kg",107 nM and 69.7 nM and 41.2 nM
same,Plasma concentration,"1008 h, SC 12 mg/kg, solution T, 400 mg/mL, 12 mg/kg",71.1 nM and 74.2 nM
same,Plasma concentration,"1008 h, SC 12 mg/kg, solution U, 500 mg/mL, 12 mg/kg",83.5 nM and 61.1 nM and 30.4 nM
same,Plasma concentration,"1344 h, SC 12 mg/kg, solution T, 400 mg/mL, 12 mg/kg",35.6 nM and 30.6 nM
same,Plasma concentration,"1344 h, SC 12 mg/kg, solution U, 500 mg/mL, 12 mg/kg",38.5 nM and 22.5 nM
same,Plasma concentration,"1680 h, SC 12 mg/kg, solution T, 400 mg/mL, 12 mg/kg",34.6 nM and 17.3 nM
same,Plasma concentration,"1680 h, SC 12 mg/kg, solution U, 500 mg/mL, 12 mg/kg",25.7 nM and 27.7 nM and 10.5 nM
same,Plasma concentration,"2016 h, SC 12 mg/kg, solution T, 400 mg/mL, 12 mg/kg",7.9 nM (2×) and 19.6 nM
same,Plasma concentration,"2016 h, SC 12 mg/kg, solution U, 500 mg/mL, 12 mg/kg",10.7 nM and 13.8 nM and 6.40 nM
same,Plasma concentration,"2352 h, SC 12 mg/kg, solution T, 400 mg/mL, 12 mg/kg",7.6 nM and 5.7 nM
same,Plasma concentration,"2352 h, SC 12 mg/kg, solution U, 500 mg/mL, 12 mg/kg",8.8 nM and 10.2 nM and 3.45 nM
same,Plasma concentration,"3696 h, SC 6 mg/kg, solution V, 300 mg/mL",BLQ
same,Plasma concentration,"4032 h, SC 6 mg/kg, solution V, 300 mg/mL",BLQ
